Measurements: publication PMC12311865, “In Vitro Evaluation of the Potential Interactions of Zearalenone-14-sulfate and Zearalenone-14-glucuronide with Human Cytochrome P450 Enzymes, Organic Anion Transporting Polypeptides, and ATP-Binding Cassette Multidrug Transporters” (ACS Omega, 2025)
Where two headings read alike, the source gives them in different places.

How the values were obtained:
CYP2C9 = target: T1, CYP2C9 (Homo sapiens, UniProt P11712); assay: in vitro; type: biochemical; conditions: diclofenac 5 μM, 120 min
T1 construct: purchased Merck
Description: Inhibitory actions of ZEN conjugates on CYP2C9 and CYP3A4 enzymes were examined employing CypExpress Cytochrome P450 human kits. , Briefly, incubates (200 μL) contained the substrate (5 μM; diclofenac for CYP2C9 and testosterone for CYP3A4), the CypExpress reagent (6 mg/mL of CYP2C9 kit or 15 mg/mL of CYP3A4 kit; also including the glucose-6-phosphate dehydrogenase enzyme), and the test compounds (each 20 μM) in 0.05 M potassium phosphate buffer (pH 7.5). CYP3A4 assay was supplemented with additional G6P and NADP^+ (both 400 μM). Enzyme assays were started with the addition of the enzyme. After 120 min (CYP2C9) or 180 min (CYP3A4) incubation at 700 rpm and 30 °C in a thermomixer, the reaction was stopped with 100 μL of ice-cold methanol. Then, the samples were centrifuged for 10 min at 14,000g and room temperature. The supernatants were gently removed and directly analyzed by HPLC (see Section ).
Diclofenac and 4′-hydroxydiclofenac (CYP2C9 assay) were quantified using the previously reported HPLC-UV assay, , without modification. Briefly, the isocratic elution, with 1.0 mL/min flow rate, was performed with orthophosphoric acid (6 mM) and acetonitrile (48:52 v/v %) mobile phase, applying a Security Guard (C8, 4.0 × 3.0 mm; Phenomenex, Torrance, CA) precolumn and a Mediterranea Sea8 (C8, 150 × 4.6 mm, 5 μm; Teknokroma, Barcelona, Spain) analytical column at room temperature (injected volume: 20 μL). Diclofenac and 4′-hydroxydiclofenac were detected at 275 nm.

OATP1A2 = target: T2, OATP1A2 (Homo sapiens, UniProt P46721); assay: OATP1A2-mediated SR101 uptake in overexpressing A431 cells; type: cell-based
T2 construct: expressed in transfected cells; host or cells: A431
T2 sequence (P46721 1-670): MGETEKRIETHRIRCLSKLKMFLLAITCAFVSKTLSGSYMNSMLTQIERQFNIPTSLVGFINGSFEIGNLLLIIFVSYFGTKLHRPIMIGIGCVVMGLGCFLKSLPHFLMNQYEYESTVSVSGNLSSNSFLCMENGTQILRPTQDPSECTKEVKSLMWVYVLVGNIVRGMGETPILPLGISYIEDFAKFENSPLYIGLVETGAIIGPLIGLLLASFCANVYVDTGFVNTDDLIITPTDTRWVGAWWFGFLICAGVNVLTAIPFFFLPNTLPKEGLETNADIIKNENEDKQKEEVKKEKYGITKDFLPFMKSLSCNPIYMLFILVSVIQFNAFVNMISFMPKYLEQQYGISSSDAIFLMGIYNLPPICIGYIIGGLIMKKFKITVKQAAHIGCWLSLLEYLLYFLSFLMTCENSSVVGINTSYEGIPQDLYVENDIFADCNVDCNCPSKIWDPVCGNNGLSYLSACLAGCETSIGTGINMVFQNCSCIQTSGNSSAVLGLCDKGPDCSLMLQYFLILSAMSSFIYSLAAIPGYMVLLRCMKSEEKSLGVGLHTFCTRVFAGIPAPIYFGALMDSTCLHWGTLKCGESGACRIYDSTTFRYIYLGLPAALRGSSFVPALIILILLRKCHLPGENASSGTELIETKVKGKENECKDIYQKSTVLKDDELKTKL
Description: The human epidermoid carcinoma cell (A431) overexpressing OATP1A2, OATP1B1, OATP1B3, or OATP2B1 transporters and their mock control cells were generated previously as described. , Cell culture was maintained in DMEM supplemented with 10% fetal bovine serum, 2 mM L-glutamine, 100 units/mL penicillin, and 100 μg/mL streptomycin at 37 °C and 5% CO2.
The inhibitory effects of mycotoxins (Z14S and Z14GA) were examined using indirect fluorescence assays, where pyranine and SR101 were used as fluorescent substrates. , A431 cells overexpressing OATP1A2, OATP1B1/3, or OATP2B1 and their mock-transfected controls were seeded at a density of 8 × 10^4 cells/well onto 96-well plates and incubated for 18–22 h prior to transport measurements. The next day, plated cells were washed three times with 200 μL of PBS (phosphate-buffered saline, pH 7.4) and preincubated with 50 μL of transport buffer (pH 5.5; 125 mM NaCl, 4.8 mM KCl, 1.2 mM CaCl2, 1.2 mM KH2PO4, 12 mM MgSO4, 25 mM MES, and 5.6 mM glucose) with or without increasing concentrations of the mycotoxins tested (0.001–20 μM) for 5 min at 37 °C. The transport inhibition measurements were initiated by adding 50 μL of transport buffer containing the proper fluorescent substrate SR101 (0.5 μM, OATP1A2) or pyranine (10 μM for OATP1B1 or 20 μM for OATP1B3 and OATP2B1). After 10 min (OATP1A2), 15 min (OATP1B1 and OATP2B1), or 30 min (OATP1B3) incubation, the transport was terminated by washing the cells three times with ice-cold PBS. […] Using an Enspire plate reader (PerkinElmer, Waltham, MA), the fluorescence was measured at excitation/emission wavelengths of 460/510 nm (pyranine) or 586/605 nm (SR101).
OATP-mediated transport was obtained by subtracting the activity of the mock control cells from the activity of the OATP-expressing cells. The transport activity (%) of the OATPs was calculated by comparing the fluorescence signal obtained in the absence of the compounds tested (set to 100%).

CYP1A2 = target: T3, CYP1A2 (Homo sapiens, UniProt P05177); conditions: each 20 μM; 0.2 vol % DMSO
T3 sequence (P05177 1-516): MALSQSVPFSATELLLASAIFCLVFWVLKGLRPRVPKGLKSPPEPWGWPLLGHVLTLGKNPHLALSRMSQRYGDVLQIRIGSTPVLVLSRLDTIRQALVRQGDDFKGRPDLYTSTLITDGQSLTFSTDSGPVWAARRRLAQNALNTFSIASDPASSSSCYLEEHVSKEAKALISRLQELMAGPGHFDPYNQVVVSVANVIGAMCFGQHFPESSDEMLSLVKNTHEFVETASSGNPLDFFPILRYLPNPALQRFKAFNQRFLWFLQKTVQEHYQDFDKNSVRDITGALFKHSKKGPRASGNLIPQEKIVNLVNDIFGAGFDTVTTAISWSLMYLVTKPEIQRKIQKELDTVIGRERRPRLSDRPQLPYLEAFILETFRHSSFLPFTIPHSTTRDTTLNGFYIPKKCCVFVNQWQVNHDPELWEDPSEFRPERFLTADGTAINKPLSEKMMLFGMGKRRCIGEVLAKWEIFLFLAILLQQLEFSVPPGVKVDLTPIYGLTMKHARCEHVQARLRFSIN
Description: We applied 10 mM stock solutions of mycotoxins (dissolved in DMSO), and the samples (including controls and positive controls) contained uniformly 0.2 vol % DMSO.

T1 sequence (P11712 whole entry): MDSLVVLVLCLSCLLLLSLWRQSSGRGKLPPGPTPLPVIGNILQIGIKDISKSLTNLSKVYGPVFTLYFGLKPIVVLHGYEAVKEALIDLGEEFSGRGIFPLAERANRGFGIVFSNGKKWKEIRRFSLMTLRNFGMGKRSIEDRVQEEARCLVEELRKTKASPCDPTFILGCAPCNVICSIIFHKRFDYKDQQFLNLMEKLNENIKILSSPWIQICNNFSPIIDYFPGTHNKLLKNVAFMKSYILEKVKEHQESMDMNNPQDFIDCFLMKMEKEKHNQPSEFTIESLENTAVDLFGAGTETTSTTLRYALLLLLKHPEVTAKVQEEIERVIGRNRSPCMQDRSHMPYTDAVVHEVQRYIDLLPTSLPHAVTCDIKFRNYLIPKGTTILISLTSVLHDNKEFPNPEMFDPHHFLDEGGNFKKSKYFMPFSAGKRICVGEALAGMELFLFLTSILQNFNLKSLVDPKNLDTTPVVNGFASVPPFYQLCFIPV

SMILES	inhibition at 120 min, 20 μM (CYP2C9; human, pH 7.5, each 20 μM, read-out: inhibition of CYP2C9 (decrease in metabolite formation)) [%]	IC50 (OATP1A2) [nM]	decrease in OATP1A2 transport activity (OATP1A2; 20 μM, SR101 substrate, A431 cells)	inhibition of CYP1A2 activity (CYP1A2)	inhibition of CYP2C9 (decrease in metabolite formation) (CYP2C9; each 20 μM)	IC50 (OATP1A2; SR101 0.5 μM, 10 min, A431 cells, read-out: IC50 for OATP1A2) [nM]
C[C@H]1CCCC(=O)CCC/C=C/c2cc(OS(=O)(=O)O)cc(O)c2C(=O)O1 [Z14S, zearalenone-14-sulfate]	~45	1400	80–100%	did not influence		
C[C@H]1CCCC(=O)CCC/C=C/c2cc(O[C@@H]3O[C@H](C(=O)O)[C@@H](O)[C@H](O)[C@H]3O)cc(O)c2C(=O)O1 [Z14GA, Zearalenone-14-glucuronide]				no effects	no effects	> 20000
